Laboratory results taken from patent EP1900728A1 (Genecare Research Institute Co., Ltd, priority 2005, dated 2006).

target: T1, IκBα ubiquitinating enzyme (SCF complex: ROC1, Cullin1, Skp1, His-TrCP1; with E1, UbcH5b) (Homo sapiens, UniProt P62877+P63208+Q13616+Q9Y297); experiment: Measurement of ubiquitinating enzyme activity (IκBα ubiquitination, time-resolved fluorescence with Eu(K)-labeled ubiquitin and XL665-labeled anti-GST antibody); assay type: biochemical; conditions: enzyme activity inhibition test, method (1), Table 5; read-out: EVALUATION
T1 construct: His (polyhistidine); made in house; host or cells: insect cells (baculovirus) for the SCF complex and His-E1; E. coli for His-UBCH5b
T1 sequence (Q9Y297 whole entry): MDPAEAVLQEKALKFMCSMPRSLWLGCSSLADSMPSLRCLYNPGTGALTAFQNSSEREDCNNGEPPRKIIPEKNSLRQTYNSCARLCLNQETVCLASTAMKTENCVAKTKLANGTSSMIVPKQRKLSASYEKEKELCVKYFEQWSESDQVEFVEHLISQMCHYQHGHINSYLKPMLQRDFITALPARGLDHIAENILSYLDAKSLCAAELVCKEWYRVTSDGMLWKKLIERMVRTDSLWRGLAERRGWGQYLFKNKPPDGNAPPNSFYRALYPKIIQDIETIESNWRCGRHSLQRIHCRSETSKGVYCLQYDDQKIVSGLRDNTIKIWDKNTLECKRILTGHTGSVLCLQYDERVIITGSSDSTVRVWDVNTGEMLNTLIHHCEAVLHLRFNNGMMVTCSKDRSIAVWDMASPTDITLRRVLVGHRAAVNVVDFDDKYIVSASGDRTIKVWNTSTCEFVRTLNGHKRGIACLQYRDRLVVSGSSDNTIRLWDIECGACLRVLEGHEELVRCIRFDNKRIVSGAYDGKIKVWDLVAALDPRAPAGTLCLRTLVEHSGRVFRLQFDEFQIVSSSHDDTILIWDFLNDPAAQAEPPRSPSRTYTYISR
T1 sequence (Q13616 whole entry): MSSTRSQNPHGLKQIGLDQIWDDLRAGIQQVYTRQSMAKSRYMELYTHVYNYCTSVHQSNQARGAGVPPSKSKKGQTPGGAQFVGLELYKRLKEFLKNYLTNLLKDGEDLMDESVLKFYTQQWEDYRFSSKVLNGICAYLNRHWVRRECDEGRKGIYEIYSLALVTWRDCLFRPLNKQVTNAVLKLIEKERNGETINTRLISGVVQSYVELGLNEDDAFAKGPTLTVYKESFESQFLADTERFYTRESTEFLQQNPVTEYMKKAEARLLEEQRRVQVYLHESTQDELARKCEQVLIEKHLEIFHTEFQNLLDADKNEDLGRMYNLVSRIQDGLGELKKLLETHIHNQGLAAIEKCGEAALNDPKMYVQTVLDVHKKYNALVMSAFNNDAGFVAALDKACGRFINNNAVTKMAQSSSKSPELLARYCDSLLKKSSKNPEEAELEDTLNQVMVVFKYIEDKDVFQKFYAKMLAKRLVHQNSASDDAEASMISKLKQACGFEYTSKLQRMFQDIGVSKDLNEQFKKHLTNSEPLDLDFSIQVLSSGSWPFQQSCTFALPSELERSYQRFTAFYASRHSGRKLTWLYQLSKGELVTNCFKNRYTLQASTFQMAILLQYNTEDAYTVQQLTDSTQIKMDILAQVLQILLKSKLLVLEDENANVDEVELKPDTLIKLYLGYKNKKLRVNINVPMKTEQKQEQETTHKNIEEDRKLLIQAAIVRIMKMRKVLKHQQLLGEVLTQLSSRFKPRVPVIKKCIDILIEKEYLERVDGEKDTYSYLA
T1 sequence (P63208 whole entry): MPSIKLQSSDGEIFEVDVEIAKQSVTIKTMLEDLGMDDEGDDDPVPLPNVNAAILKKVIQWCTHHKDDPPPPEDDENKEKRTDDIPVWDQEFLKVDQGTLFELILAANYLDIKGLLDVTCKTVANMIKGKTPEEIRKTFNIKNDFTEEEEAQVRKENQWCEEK
T1 sequence (P62877 whole entry): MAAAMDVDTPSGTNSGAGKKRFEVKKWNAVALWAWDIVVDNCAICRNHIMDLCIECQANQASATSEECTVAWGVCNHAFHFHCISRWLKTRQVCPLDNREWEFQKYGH
Procedure: Method 1: Measurement of ubiquitinating enzyme activity
A recombinant vector His-UBCH5b containing a polyhistidine tag (His) and UBCH5b was prepared. E. coli was transformed with the vector, the protein was expressed, and affinity purification was carried out using Ni-NTA agarose (Qiagen). Four types of recombinant baculoviruses (ROC1, Cullin1, Skp1, and His-TrCP1) were prepared for the SCF complex protein, insect cells were infected in quadruplicate for expression, and affinity purification was carried out using Ni-NTA agarose. Recombinant baculoviruses His-IKKβ, His-E1 were prepared. The insect cells were infected with each of those for expression, and affinity purification was carried out using Ni-NTA agarose. A recombinant vector GST-IκBα was prepared by fusing glutathione-S-transferase tag (GST) and IκBα, E. coli was transformed with the vector for the protein expression, and affinity purification was carried out using glutathione sepharose (Amersham Biosciences). Genetic transformants were prepared by PCR amplification followed by recombination, all of which were based on published human-derived sequences.
Phosphorylation reaction of IκBα was performed by incubating the above-mentioned assay buffer (50 mM Tris-HCl (pH7.4), 2 mM ATP, 5 mM MgCl2, 0.5 mM DTT, 0.1% BSA) containing IκBα and IKKβ at room temperature for 1 hour. Ubiquitination reactions were carried out as follows. Compound samples at various concentrations, ubiquitin, Eu (K)-labeled ubiquitin, E1, UbcH5b, and SCF complex were added to phosphorylated IκBα, and then this was incubated at room temperature for 30 minutes. The reaction was terminated by adding EDTA, the above-mentioned revelation buffer (100 mM phosphate buffer (pH7.0), 0.5 M KF, 0.1% BSA) containing XL665-labeled anti-GST antibody was added and this was left to stand at room temperature for 2 hours. Measurements were made using ARVO-HTS (Perkin Elmer). The ratio of fluorescence intensities at 620 nm and 665 nm (Em 665 nm/Em 620 nm x 10,000) with excitation light at 337 nm was measured.
The ubiquitination level without the addition of a compound sample was used as the control value, and the level in the absence of SCF complex was used as the blank value for the assays. Inhibitory activities of the compounds were indicated as % inhibition = 100 - (value with a compound sample added - blank value) / (control value - blank value) x 100. IC50 was indicated as the concentration of the compound showing 50% inhibition. Eu (K)-labeled ubiquitin, XL665-labeled anti-GST antibody, and XL665-labeled anti-His antibody were purchased from CIS bio international. Costar solid black plates (96 wells) were used for the assays.

| SMILES | IC50 |
| --- | --- |
| O=C(O)c1ccc(N2N=C(c3cccnc3)/C(=C/c3ccc(N4CCCC4)cc3)C2=O)cc1 [Compound 309] | < 40 µM |
| CCCCC1=NN(c2ccccc2)C(=O)/C1=C\c1ccc(O)c(OC)c1 [Compound 50] | 10 to 20 µM |
| CC1=NN(c2cccc(C(=O)O)c2)C(=O)/C1=C\c1ccc(N2CCC(N3CCCC3)CC2)cc1 [Compound 435] | 10 to 20 µM |
| CC1=NN(c2cccc(S(N)(=O)=O)c2)C(=O)C1=Cc1cc2ccccc2n1C [Compound 141] | 10 to 20 µM |
| CCOC(=O)c1ccc(COc2ccc(/C=C3\C(=O)N(c4cccc(C(=O)O)c4)N=C3C)cc2OC)o1 [Compound 395] | < 40 µM |
| CC1=NN(c2ccc(C(=O)N(C)C)cc2)C(=O)/C1=C\c1ccc2[nH]ccc2c1 [Compound 363] | 10 to 20 µM |
| CC1=NN(c2ccc(S(N)(=O)=O)cc2)C(=O)/C1=C\c1ccccc1O [Compound 219] | < 40 µM |
| CC1=NN(c2ccc(C(=O)O)cc2)C(=O)/C1=C\c1c(C)nn(C)c1Cl [Compound 514] | < 40 µM |
| CC1=NN(c2ccc(C(=O)O)cc2)C(=O)/C1=C\c1ccc2cc[nH]c2c1 [Compound 380] | < 10 µM |
| CC1=NN(c2ccc(S(N)(=O)=O)cc2)C(=O)C1=Cc1ccc(N2CCNCC2)cc1 [Compound 183] | 10 to 20 µM |
| CC1=NN(c2ccc(C(=O)O)cc2)C(=O)/C1=C\c1cccs1 [Compound 517] | < 40 µM |
| O=C1/C(=C\c2ccc(-n3cccn3)cc2)C(Cc2ccccc2)=NN1c1ccccc1 [Compound 30] | 10 to 20 µM |
| O=C(O)c1ccc(N2N=C(c3ccncc3)C(=Cc3ccc4c(c3)OCCO4)C2=O)cc1 [Compound 288] | 10 to 20 µM |
| CC1=NN(c2cccc(S(N)(=O)=O)c2)C(=O)/C1=C\c1ccc(-n2cccn2)cc1 [Compound 145] | 10 to 20 µM |
| COc1ccc(C2=NN(c3ccc(C(=O)O)cc3)C(=O)C2=Cc2ccc(N3CCN(C)CC3)cc2)cc1OC [Compound 285] | 10 to 20 µM |
| CC1=NN(c2ccc(S(N)(=O)=O)cc2)C(=O)/C1=C\c1ccc(C(=O)O)cc1 [Compound 223] | 10 to 20 µM |
| CC1=NN(c2cccc(C(=O)O)c2)C(=O)/C1=C\c1c(C)nn(C)c1Cl [Compound 513] | < 40 µM |
| COc1cc(/C=C2\C(=O)N(c3ccccc3)N=C2c2cccnc2)ccc1O [Compound 60] | < 40 µM |
| O=C(O)c1ccc(N2N=C(c3ccccn3)/C(=C/c3ccc(-n4cccn4)cc3)C2=O)cc1 [Compound 294] | < 40 µM |
| CC1=NN(c2cccc(C(=O)O)c2)C(=O)/C1=C\c1ccc(-n2cccn2)cc1 [Compound 379] | < 10 µM |
| CC1=NN(c2ccccc2)C(=O)/C1=C\c1ccc(OCC(=O)Nc2ccccc2)cc1 [Compound 205] | < 40 µM |
| CC1=NN(c2cccc(C(=O)O)c2)C(=O)/C1=C\c1ccc2c(ccn2C(=O)c2ccccc2)c1 [Compound 529] | < 10 µM |

| SMILES | IC50 |
| --- | --- |
| CC1=NN(c2cccc(C(=O)O)c2)C(=O)/C1=C\c1ccsc1 [Compound 515] | < 40 µM |
| NS(=O)(=O)c1ccc(N2N=C(C3CC3)/C(=C/c3ccc(-n4cccn4)cc3)C2=O)cc1 [Compound 110] | < 10 µM |
| CC1=NN(c2cccc(C(=O)N3CCCCC3)c2)C(=O)/C1=C\c1ccc2[nH]ccc2c1 [Compound 369] | < 10 µM |
| COCC1=NN(c2ccc(C(=O)O)cc2)C(=O)C1=Cc1ccc(N2CCC(O)CC2)s1 [Compound 240] | < 40 µM |
| CCCCC1=NN(c2ccccc2)C(=O)/C1=C\c1ccc2ccccc2c1 [Compound 51] | < 40 µM |
| O=C1/C(=C\c2cccc3nccnc23)C(C2CC2)=NN1c1ccccc1 [Compound 72] | < 40 µM |
| COCC1=NN(c2ccccc2)C(=O)/C1=C\c1ccc(OCc2ccccc2)c(OC)c1 [Compound 3] | 10 to 20 µM |
| O=C(O)c1ccc(N2N=C(c3ccoc3)/C(=C/c3ccc4c(c3)OCCO4)C2=O)cc1 [Compound 330] | < 10 µM |
| CC1=NN(c2cccc(C(=O)O)c2)C(=O)/C1=C\c1c[nH]c2ccc(Cl)cc12 [Compound 377] | < 10 µM |
| CCOC(=O)c1ccc(COc2ccc(/C=C3\C(=O)N(c4cccc(S(N)(=O)=O)c4)N=C3C)cc2OC)o1 [Compound 155] | < 40 µM |
| CC1=NN(c2ccc(C(=O)O)cc2)C(=O)/C1=C\c1ccc(N2CCC(CO)CC2)cc1 [Compound 426] | 10 to 20 µM |
| COC(=O)N1CCN(c2ccc(/C=C3\C(=O)N(c4ccccc4)N=C3c3ccncc3)cc2)CC1 [Compound 42] | < 40 µM |
| CC1=NN(c2cccc(S(N)(=O)=O)c2)C(=O)/C1=C\c1c[nH]c2ccc(Cl)cc12 [Compound 147] | < 10 µM |
| CCCCC1=NN(c2ccccc2)C(=O)/C1=C\c1nccs1 [Compound 105] | < 40 µM |
| COc1ncccc1/C=C1\C(=O)N(c2cccc(C(=O)O)c2)N=C1C [Compound 506] | < 40 µM |
| COC(=O)N1CCN(c2ccc(C=C3C(=O)N(c4ccc(C(=O)O)cc4)N=C3c3ccccn3)cc2)CC1 [Compound 335] | 10 to 20 µM |
| COc1ccc(C2=NN(c3ccc(C(=O)O)cc3)C(=O)/C2=C\c2cccc3nccnc23)cc1OC [Compound 278] | < 40 µM |
| COCCNC(=O)c1cccc(N2N=C(C)/C(=C/c3ccc4c(c3)OCCO4)C2=O)c1 [Compound 405] | < 40 µM |
| COc1cc(/C=C2\C(=O)N(c3ccc(S(N)(=O)=O)cc3)N=C2C)ccc1OCn1nnc2ccccc21 [Compound 156] | 10 to 20 µM |
| O=C(O)c1ccc(N2N=C(c3ccncc3)/C(=C/c3ccc(-c4ccccc4F)o3)C2=O)cc1 [Compound 341] | 10 to 20 µM |
| COCC1=NN(c2ccccc2)C(=O)/C1=C\c1ccc(N2CCN(C(=O)OC)CC2)cc1 [Compound 5] | < 40 µM |
| COCC1=NN(c2ccccc2)C(=O)/C1=C\c1ccc2c(c1)OCCO2 [Compound 9] | 10 to 20 µM |

| SMILES | IC50 |
| --- | --- |
| CC1=NN(c2ccc(C(=O)O)cc2)C(=O)/C1=C\c1nccs1 [Compound 257] | < 40 µM |
| CC1=NN(c2ccc(S(N)(=O)=O)cc2)C(=O)C1=Cc1ccc(NC(=O)c2ccco2)cc1 [Compound 231] | < 10 µM |
| COCC1=NN(c2ccccc2)C(=O)/C1=C\c1ccc(-n2cccn2)cc1 [Compound 10] | < 40 µM |
| COc1cc(/C=C2\C(=O)N(c3cccc(C(=O)O)c3)N=C2C)ccc1OCC1CC1 [Compound 393] | 10 to 20 µM |
| CC1=NN(c2cccc(C(=O)NC[C@H](C)O)c2)C(=O)/C1=C\c1ccc2c(c1)OCCO2 [Compound 401] | 10 to 20 µM |
| COCC1=NN(c2ccc(C(=O)O)cc2)C(=O)/C1=C\c1ccc2[nH]ccc2c1 [Compound 465] | < 10 µM |
| CCOC(=O)CN1N=C(C)/C(=C/c2ccc(O)c(OC)c2)C1=O [Compound 130] | 10 to 20 µM |
| COc1cc(/C=C2/C(=O)N(c3ccccc3F)N=C2C)ccc1O [Compound 197] | < 40 µM |
| O=C(O)c1ccc(N2N=C(c3cccnc3)/C(=C/c3ccc(-c4ccccc4F)o3)C2=O)cc1 [Compound 339] | 10 to 20 µM |
| O=C1/C(=C\c2ccc(N3CCCC3)cc2)C(c2ccncc2)=NN1c1ccccc1 [Compound 45] | < 40 µM |
| COc1cc(/C=C2\C(=O)N(c3cccc(S(N)(=O)=O)c3)N=C2C)ccc1OCn1nnc2ccccc21 [Compound 157] | 10 to 20 µM |
| O=C(O)c1ccc(N2N=C(c3cccnc3)C(=Cc3ccc4ccccc4c3)C2=O)cc1 [Compound 345] | 10 to 20 µM |
| CC1=NN(c2ccc(C(=O)N3CCOCC3)cc2)C(=O)/C1=C\c1ccc2c(c1)OCCO2 [Compound 386] | 10 to 20 µM |
| CC1=NN(c2cccc(S(N)(=O)=O)c2)C(=O)/C1=C\c1ccc(N2CCN(c3ccc(F)cc3)CC2)cc1 [Compound 177] | 10 to 20 µM |
| COc1ccc(C2=NN(c3ccc(C(=O)O)cc3)C(=O)/C2=C\c2ccc(-n3ccnc3)cc2)cc1OC [Compound 282] | < 40 µM |
| CC1=NN(c2cccc(S(N)(=O)=O)c2)C(=O)/C1=C\c1ccc(N2CCNCC2)cc1 [Compound 184] | 10 to 20 µM |
| COc1cc(/C=C2\C(=O)N(c3ccc(S(N)(=O)=O)cc3)N=C2C)ccc1OCc1c(C)noc1C [Compound 158] | < 40 µM |
| CC1=NN(c2cccc(S(N)(=O)=O)c2)C(=O)/C1=C\c1ccc(N2CCC(O)C2)cc1 (stereo not shown) [Compound 178] | < 40 µM |
| O=C(O)c1ccc(N2N=C(c3ccoc3)/C(=C/c3ccc(N4CCC(CO)CC4)cc3)C2=O)cc1 [Compound 438] | < 10 µM |
| COc1cc(/C=C2\C(=O)N(C)N=C2C)ccc1O [Compound 132] | < 40 µM |
